The target in experiment [1] is huSTING (WT) (Homo sapiens (Human), UniProt Q86WV6, H232R). Kind of experiment: THP-1 reporter cell line assay, THP-1-Dual KI-hSTING-R232 cells. Format: cell-based. As to conditions: read-out: Cellular EC50 huSTING (WT).
For experiment [2], the target named is huSTING (HAQ) (Homo sapiens (Human), UniProt Q86WV6, G230A/H232R/R293Q/R71H). Briefly: THP-1 reporter cell line assay, THP-1 STING Lucia ISG cells. The experiment is classed as cell-based. Conditions: THP-1 STING Lucia ISG cells, read-out: Cellular EC50 huSTING (HAQ).
Where [3] appears, read: modified method, top concentration 40 μM, pin tool, EnVision.

Molecules are shown by their SMILES. Counter-ions that a name gives are not always drawn. Like-named read-outs stand apart in the source and are kept apart here.

Sequence of huSTING (HAQ) (Q86WV6 whole entry R71H/G230A/H232R/R293Q): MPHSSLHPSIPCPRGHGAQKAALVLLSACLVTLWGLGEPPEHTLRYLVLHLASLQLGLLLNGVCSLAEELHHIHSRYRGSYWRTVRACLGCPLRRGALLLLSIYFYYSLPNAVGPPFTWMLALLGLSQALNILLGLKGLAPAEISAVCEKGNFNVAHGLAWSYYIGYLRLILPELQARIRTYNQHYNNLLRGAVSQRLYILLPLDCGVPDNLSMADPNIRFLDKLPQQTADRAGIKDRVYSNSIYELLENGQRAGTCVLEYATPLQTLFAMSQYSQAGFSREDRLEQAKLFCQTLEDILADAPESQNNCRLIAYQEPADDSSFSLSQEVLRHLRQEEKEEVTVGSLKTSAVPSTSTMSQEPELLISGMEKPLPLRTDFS
Sequence of huSTING (WT) (Q86WV6 whole entry H232R): as the sequence (Q86WV6 whole entry R71H/G230A/H232R/R293Q) above, with H71R, A230G, Q293R counted along it

With `COc1cccc2sc(C(=O)OCc3ccccc3)c(COc3ccc(C(N)=O)cc3)c12` [Example 156, Benzyl 3-((4-carbamoylphenoxy)methyl)-4-methoxybenzo[b]thiophene-2-carboxylate], the EC50 – broadly, the midpoint of the concentration-response curve – is 4510 nM in experiment [1] and 628 nM in experiment [2] (setting [3]).
For the compound `CCOC(=O)c1sc2ccc(F)c(Cl)c2c1COc1c(F)cc(C(N)=O)cc1F` [Example 85, Ethyl 3-((4-carbamoyl-2,6-difluorophenoxy)methyl)-4-chloro-5-fluorobenzo[b]thiophene-2-carboxylate], the EC50 is greater than 50000 nM in experiment [1] and 1630 nM in experiment [2] (24 h, top concentration 50 μM).
Regarding `CCOC(=O)c1sc2cccc(Cl)c2c1COc1ccc2c(N)noc2c1` [Example 47, Ethyl 3-(((3-aminobenzo[d]isoxazol-6-yl)oxy)methyl)-4-chlorobenzo[b]thiophene-2-carboxylate], the EC50 in experiment [1] was greater than 50000 nM; in experiment [2] (24 h, top concentration 50 μM), 18700 nM.
Taken in the same sequence, the figures for `CCOC(=O)c1sc2cccc(Cl)c2c1COc1c(C)cc(C(N)=O)cc1OC` [Example 72, Ethyl 3-((4-carbamoyl-2-methoxy-6-methylphenoxy)methyl)-4-chlorobenzo[b]thiophene-2-carboxylate] were greater than 50000 nM and 7440 nM.
On to `COC(=O)N1CCC(OC(=O)c2sc3cccc(Cl)c3c2COc2c(F)cc(C(N)=O)cc2F)CC1` [Example 163, Methyl 4-((3-((4-carbamoyl-2,6-difluorophenoxy)methyl)-4-chlorobenzo[b]thiophene-2-carbonyl)oxy)piperidine-1-carboxylate], for which the EC50 in experiment [1] stood at 1560 nM; in experiment [2] (setting [3]) it was 62 nM.
Take `CCOC(=O)c1sc2cc(F)cc(F)c2c1COc1ccc(C(N)=O)cc1` [Example 31, Ethyl 3-((4-carbamoylphenoxy)methyl)-4,6-difluorobenzo[b]thiophene-2-carboxylate]: the EC50 in experiment [1] was determined as 6910 nM; in experiment [2] (24 h, top concentration 50 μM), 6760 nM.
As for `CCOC(=O)c1sc2c(Br)ccc(Cl)c2c1COc1c(F)cc(C(N)=O)cc1F` [Example 99, Ethyl 7-bromo-3-((4-carbamoyl-2,6-difluorophenoxy)methyl)-4-chlorobenzo[b]thiophene-2-carboxylate], the concentration for a half-maximal effect (EC50) in experiment [1] amounted to 135 nM; in experiment [2] (setting [3]), 22 nM.
Taken in the same sequence, the figures for `CCOC(=O)c1sc2cccc(Br)c2c1COc1c(F)cc(C(N)=O)cc1F` [Example 89, Ethyl 4-bromo-3-((4-carbamoyl-2,6-difluorophenoxy)methyl)benzo[b]thiophene-2-carboxylate] were 148 nM and 16 nM.
Take `CCOC(=O)c1sc2cccc(F)c2c1COc1c(F)cc(C(N)=O)cc1Br` [Example 55, Ethyl 3-((2-bromo-4-carbamoyl-6-fluorophenoxy)methyl)-4-fluorobenzo[b]thiophene-2-carboxylate]: the EC50 in experiment [1] was greater than 50000 nM; in experiment [2] (24 h, top concentration 50 μM), 3600 nM.
Regarding `CCOC(=O)c1sc2ccc(C)c(Cl)c2c1COc1ccc(C(N)=O)cc1` [Example 17, Ethyl 3-((4-carbamoylphenoxy)methyl)-4-chloro-5-methylbenzo[b]thiophene-2-carboxylate], the EC50 in experiment [1] was greater than 50000 nM; in experiment [2] (24 h, top concentration 50 μM), 14800 nM.
Take `NC(=O)c1ccc(OCc2c(C(=O)NCc3ccccc3)sc3cccc(Br)c23)cc1` [Example 166, N-Benzyl-4-bromo-3-((4-carbamoylphenoxy)methyl)benzo[b]thiophene-2-carboxamide]: the EC50 stood at 28900 nM in experiment [1] and 9950 nM in experiment [2] (setting [3]).
Consider `Cc1oc(=O)oc1COC(=O)c1sc2cccc(Cl)c2c1COc1c(F)cc(C(N)=O)cc1F` [Example 126, (5-Methyl-2-oxo-1,3-dioxol-4-yl)methyl 3-((4-carbamoyl-2,6-difluorophenoxy)methyl)-4-chlorobenzo[b]thiophene-2-carboxylate], for which the EC50 in experiment [1] was 187 nM; in experiment [2] (setting [3]), 39 nM.
On to `CC(=O)OC(C)OC(=O)c1sc2cccc(Cl)c2c1COc1c(F)cc(C(N)=O)cc1F` (stereo not drawn) [Example 134, 1-Acetoxyethyl 3-((4-carbamoyl-2,6-difluorophenoxy)methyl)-4-chlorobenzo[b]thiophene-2-carboxylate], for which the results for the EC50 in experiment [1] and in experiment [2] (setting [3]) were 217 nM and 42 nM, respectively.
In the case of `CCOC(=O)c1sc2cccc(Cl)c2c1COc1ccc(C(N)=O)cc1OC` [Example 29, Ethyl 3-((4-carbamoyl-2-methoxyphenoxy)methyl)-4-chlorobenzo[b]thiophene-2-carboxylate], the EC50 was determined as 6500 nM in experiment [1] and 2680 nM in experiment [2] (24 h, top concentration 50 μM).
As for `CC(C)[C@H](N)C(=O)OCOC(=O)c1sc2cccc(Cl)c2c1COc1c(F)cc(C(N)=O)cc1F` [Example 152, ((L-Valyl)oxy)methyl 3-((4-carbamoyl-2,6-difluorophenoxy)methyl)-4-chlorobenzo[b]thiophene-2-carboxylate trifluoroacetate salt], the EC50 worked out at 53700 nM in experiment [1] and 967 nM in experiment [2] (setting [3]).
Consider `COc1cccc2sc(C(=O)OCOC(=O)C(C)(C)C)c(COc3c(F)cc(C(N)=O)cc3F)c12` [Example 123, (Pivaloyloxy)methyl 3-((4-carbamoyl-2,6-difluorophenoxy)methyl)-4-methoxybenzo[b]thiophene-2-carboxylate], for which the results for the EC50 in experiment [1] and in experiment [2] (setting [3]) were 335 nM and 49 nM, respectively.
With `CC(OC(=O)c1sc2cccc(Cl)c2c1COc1c(F)cc(C(N)=O)cc1F)OC(=O)C(C)C` (stereo not drawn) [Example 135, 1-(Isobutyryloxy)ethyl 3-((4-carbamoyl-2,6-difluorophenoxy)methyl)-4-chlorobenzo[b]thiophene-2-carboxylate], the EC50 is 334 nM in experiment [1] and 64 nM in experiment [2] (setting [3]).
With `CCOC(=O)c1sc2cccc(Cl)c2c1COc1c(Cl)cc(C(N)=O)cc1Cl` [Example 39, Ethyl 3-((4-carbamoyl-2,6-dichlorophenoxy)methyl)-4-chlorobenzo[b]thiophene-2-carboxylate], the EC50 came out at 1780 nM in experiment [1] and 1480 nM in experiment [2] (24 h, top concentration 50 μM).
On to `CN1CC(OC(=O)c2sc3cccc(Cl)c3c2COc2c(F)cc(C(N)=O)cc2F)C1` [Example 164, 1-Methylazetidin-3-yl 3-((4-carbamoyl-2,6-difluorophenoxy)methyl)-4-chlorobenzo[b]thiophene-2-carboxylate], for which the EC50 amounted to 249 nM in experiment [1] and 27 nM in experiment [2] (setting [3]).
As to `CC(=O)N[C@H](C(=O)OCOC(=O)c1sc2cccc(Cl)c2c1COc1c(F)cc(C(N)=O)cc1F)C(C)C` [Example 139, ((Acetyl-L-valyl)oxy)methyl 3-((4-carbamoyl-2,6-difluorophenoxy)methyl)-4-chlorobenzo[b]thiophene-2-carboxylate], the EC50 in experiment [1] came out at 291 nM; in experiment [2] (setting [3]), 36 nM.
The matching figures for `NC(=O)c1cc(F)c(OCc2c(C(=O)OCCN3CCOCC3)sc3cccc(Cl)c23)c(F)c1` [Example 137, 2-Morpholinoethyl 3-((4-carbamoyl-2,6-difluorophenoxy)methyl)-4-chlorobenzo[b]thiophene-2-carboxylate]: 226 nM and 21 nM.
The matching figures for `C=Cc1cc(OCc2c(C(=O)OCC)sc3cccc(Cl)c23)ccc1C(N)=O` [Example 168, Ethyl 3-((4-carbamoyl-3-vinylphenoxy)methyl)-4-chlorobenzo[b]thiophene-2-carboxylate]: greater than 40000 nM and 7440 nM.
Regarding `CCOC(=O)c1sc2cccc(Cl)c2c1COc1ccc(C(N)=O)c(OC)c1` [Example 97, Ethyl 3-((4-carbamoyl-3-methoxyphenoxy)methyl)-4-chlorobenzo[b]thiophene-2-carboxylate], the EC50 in experiment [1] is 9720 nM; in experiment [2] (setting [3]), 1430 nM.
As for `COc1cccc2sc(C(=O)OC(C)C)c(COc3ccc(C(N)=O)cc3)c12` [Example 154, Isopropyl 3-((4-carbamoylphenoxy)methyl)-4-methoxybenzo[b]thiophene-2-carboxylate], the EC50 in experiment [1] came to 2050 nM; in experiment [2] (setting [3]) it was 448 nM.
Regarding `CCOC(=O)c1sc2cccc(COC)c2c1COc1c(F)cc(C(N)=O)cc1F` [Example 115, Ethyl 3-((4-carbamoyl-2,6-difluorophenoxy)methyl)-4-(methoxymethyl)benzo[b]thiophene-2-carboxylate], the figures for the EC50 in experiment [1] and in experiment [2] (setting [3]) were 1510 nM and 635 nM, respectively.
For `CCOC(=O)c1sc2c(OC)ccc(Cl)c2c1COc1c(F)cc(C(N)=O)cc1F` [Example 149, Ethyl 3-((4-carbamoyl-2,6-difluorophenoxy)methyl)-4-chloro-7-methoxybenzo[b]thiophene-2-carboxylate], the EC50 in experiment [1] was 797 nM; in experiment [2] (setting [3]), 613 nM.
For the compound `CCOC(=O)c1sc2cccc(Br)c2c1COc1ccc(C(N)=O)cc1` [Example 21, Ethyl 4-bromo-3-((4-carbamoylphenoxy)methyl)benzo[b]thiophene-2-carboxylate], the EC50 worked out at 576 nM in experiment [1] and 474 nM in experiment [2] (24 h, top concentration 50 μM).
Consider `CC(C)(C)OC(=O)OCOC(=O)c1sc2cccc(Cl)c2c1COc1c(F)cc(C(N)=O)cc1F` [Example 130, ((tert-Butoxycarbonyl)oxy)methyl 3-((4-carbamoyl-2,6-difluorophenoxy)methyl)-4-chlorobenzo[b]thiophene-2-carboxylate], for which the EC50 was 687 nM in experiment [1] and 60 nM in experiment [2] (setting [3]).
For the compound `CCOC(=O)c1sc2cccc(Cl)c2c1COc1ccc(C(N)=O)nc1` [Example 45, Ethyl 3-(((6-carbamoylpyridin-3-yl)oxy)methyl)-4-chlorobenzo[b]thiophene-2-carboxylate], the EC50 was determined as 24700 nM in experiment [1] and 12900 nM in experiment [2] (24 h, top concentration 50 μM).
Regarding `CCOC(=O)c1sc2cccc(Cl)c2c1COc1ccc(C(N)=O)cc1C#N` [Example 43, Ethyl 3-((4-carbamoyl-2-cyanophenoxy)methyl)-4-chlorobenzo[b]thiophene-2-carboxylate], the EC50 in experiment [1] amounted to 3780 nM; in experiment [2] (24 h, top concentration 50 μM) it was 1350 nM.

The record behind these values is patent publication US11613525B2 (CTXT PTY LIMITED, priority 2018, dated 2023).
